Here are results for eleven molecules from ChEMBL document CHEMBL1133158, “Beta-carbonyl substituted glutathione conjugates as inhibitors Of O. volvulus GST2” (Bioorg Med Chem Lett, 2000).

Test [1] in a line: Selectivity of compound for piGST to that of OvGST2.
The target in test [2] is Glutathione S-transferase P (Homo sapiens, UniProt P09211). Briefly: Inhibitory activity against human Glutathione S-transferase P.
Chain of Glutathione S-transferase P (P09211 whole entry): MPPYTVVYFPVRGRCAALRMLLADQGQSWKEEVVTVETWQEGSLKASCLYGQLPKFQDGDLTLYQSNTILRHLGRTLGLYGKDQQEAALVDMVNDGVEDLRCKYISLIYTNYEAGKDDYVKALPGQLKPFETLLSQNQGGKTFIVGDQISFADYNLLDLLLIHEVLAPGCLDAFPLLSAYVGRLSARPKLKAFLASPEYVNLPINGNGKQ

As to `CCCC(CC(C)=O)SCC(NC(=O)CCC(N)C(=O)O)C(=O)NCC(=O)O` (stereo unspecified), in test [1], the Selectivity was found to be 1.3. The half-maximal inhibitory concentration (IC50) (as a rule, the concentration needed to halve the response being measured) in test [2] was found to be 8.1 µM.

Consider `COC(=O)CC(SCC(NC(=O)CCC(N)C(=O)O)C(=O)NCC(=O)O)C(=O)OC` (stereo unspecified), for which inhibition in test [2] was half-maximal at 208 µM (IC50).

On to `CCC(=O)CC(C)SCC(NC(=O)CCC(N)C(=O)O)C(=O)NCC(=O)O` (stereo unspecified), for which half-maximal inhibition in test [2] (IC50) was put at 217 µM. This IC50 and that of the molecule before are within 1.5-fold of each other.

Consider `CCCCOC(=O)CC(SCC(NC(=O)CCC(N)C(=O)O)C(=O)NCC(=O)O)C(=O)O` (stereo unspecified), for which, in test [1], the Selectivity was 0.8. Besides, half-maximal inhibition in test [2] (IC50) was put at 40.3 µM.

`CCCOC(=O)CC(SCC(NC(=O)CCC(N)C(=O)O)C(=O)NCC(=O)O)C(=O)OCCC` (stereo unspecified): in test [2], the half-maximal inhibitory concentration (IC50) is above 250 µM.

Take `CCC(CC(C)=O)SCC(NC(=O)CCC(N)C(=O)O)C(=O)NCC(=O)O` (stereo unspecified): in test [2], the 50% inhibitory concentration (IC50) turned out to be 5.2 µM.

In test [1], `NC(CCC(=O)NC(CSC(CC(=O)O)C(=O)O)C(=O)NCC(=O)O)C(=O)O` (stereo unspecified) had a Selectivity above 13.9. This molecule registered a half-maximal inhibitory concentration (IC50) in test [2] above 250 µM.

For `NC(CCC(=O)NC(CSC1CCCC(=O)C1)C(=O)NCC(=O)O)C(=O)O` (stereo unspecified), the Selectivity in test [1] is above 1.1. In test [2], this molecule yielded an IC50 above 250 µM.

`CC(=O)CC(SCC(NC(=O)CCC(N)C(=O)O)C(=O)NCC(=O)O)c1ccccc1` (stereo unspecified) showed a concentration for half-maximal inhibition (IC50) in test [2] of 155 µM.

In test [1], `CC(C)C(=O)CC(SCC(NC(=O)CCC(N)C(=O)O)C(=O)NCC(=O)O)c1ccccc1` (stereo unspecified) registered a Selectivity above 7.8. The molecule also gave an IC50 in test [2] above 250 µM.

On to `CC(=O)CC(SCC(NC(=O)CCC(N)C(=O)O)C(=O)NCC(=O)O)C(C)C` (stereo unspecified), for which the half-maximal inhibitory concentration (IC50) in test [2] is above 250 µM.
